Data: US10208059B2, “Heterocyclic modulators of HIF activity for treatment of disease” (Board of Regents, University of Texas System, priority 2012, dated 2019)

Each compound was assayed on 293T-HRE-GFP-luc cells (assay: Cell-based reporter assay for IC50 determinations). Settings: hypoxia 6 hrs (1% O2), luminescence, read-out: IC50 Classification.
In short: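 Cells carrying an HRE-driven GFP-luciferase reporter, seeded at 12,000/well and held overnight, then given 1:3 serial compound dilutions (DMSO, further diluted 1:50 in medium). After 30 min in normoxia, plates held 6 h in hypoxia (1% O2, 37 °C); luciferase luminescence read, IC50 by four-parameter logistic fit.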

Structure (SMILES)	IC50 [nM]
Cc1nc(-c2nc(-c3ccc(OC(F)(F)F)cc3)no2)nn1Cc1cccc(C(O)CO)c1 (centres unmarked) [Example 85, 1-{3-[(5-Methyl-3-{3-[4-(trifluoromethoxy)phenyl]-1,2,4-oxadiazol-5-yl}-1H-1,2,4-triazol-1-yl)methyl]phenyl}ethane-1,2-diol]	< 100
Cc1nc(-c2nc(-c3ccc(OC(F)(F)F)cc3)no2)nn1Cc1cccc(OCC(O)CO)c1 (centres unmarked) [Example 86, 3-{3-[(5-methyl-3-{3-[4-(trifluoromethoxy)phenyl]-1,2,4-oxadiazol-5-yl}-1H-1,2,4-triazol-1-yl)methyl]phenoxy}propane-1,2-diol]	< 100
Cc1nc(-c2nc(-c3ccc(OC(F)(F)F)cc3)cs2)nn1Cc1ccnc(N2CCN(C)CC2)c1 [Example 87, 1-Methyl-4-{4-[(5-methyl-3-{4-[4-(trifluoromethoxy)phenyl]-1,3-thiazol-2-yl}-1H-1,2,4-triazol-1-yl)methyl]pyridin-2-yl}piperazine]	< 100
Cc1nc(-c2nc(-c3ccc(OC(F)(F)F)cc3)cs2)nn1Cc1cccc(S(C)(=O)=O)c1 [Example 88, 1-[(3-Methanesulfonylphenyl)methyl]-5-methyl-3-{4-[4-(trifluoromethoxy)phenyl]-1,3-thiazol-2-yl}-1H-1,2,4-triazole]	100 to 1000
Cc1nc(-c2nc(-c3ccc(OC(F)(F)F)cc3)cs2)nn1Cc1cccc(C(=O)N(C)C)c1 [Example 89, N,N-Dimethyl-3-[(5-methyl-3-{4-[4-(trifluoromethoxy)phenyl]-1,3-thiazol-2-yl}-1H-1,2,4-triazol-1-yl)methyl]benzamide]	100 to 1000
COCCOc1cccc(Cn2nc(-c3nc(-c4ccc(OC(F)(F)F)cc4)cs3)nc2C)c1 [Example 90, 1-{[3-(2-Methoxyethoxy)phenyl]methyl}-5-methyl-3-{4-[4-(trifluoromethoxy)phenyl]-1,3-thiazol-2-yl}-1H-1,2,4-triazole]	100 to 1000
Cc1nc(-c2nc(-c3ccc(OC(F)(F)F)cc3)cs2)nn1Cc1cccc(OCCO)c1 [Example 91, 2-{3-[(5-Methyl-3-{4-[4-(trifluoromethoxy)phenyl]-1,3-thiazol-2-yl}-1H-1,2,4-triazol-1-yl)methyl]phenoxy}ethan-1-ol]	100 to 1000
Cc1nc(-c2ncc(-c3ccc(OC(F)(F)F)cc3)o2)nn1Cc1ccnc(N2CCN(C)CC2)c1 [Example 92, 1-Methyl-4-{4-[(5-methyl-3-{5-[4-(trifluoromethoxy)phenyl]-1,3-oxazol-2-yl}-1H-1,2,4-triazol-1-yl)methyl]pyridin-2-yl}piperazine]	< 100
Cc1nc(-c2ncc(-c3ccc(OC(F)(F)F)cc3)o2)nn1Cc1ccnc(N2CCOCC2)c1 [Example 93, 4-{4-[(5-methyl-3-{5-[4-(trifluoromethoxy)phenyl]-1,3-oxazol-2-yl}-1H-1,2,4-triazol-1-yl)methyl]pyridin-2-yl}morpholine]	100 to 1000
Cc1nc(-c2cc(-c3ccc(OC(F)(F)F)cc3)no2)nn1Cc1cccc(N2CCC(S(C)(=O)=O)CC2)c1 [Example 94, 5-(5-Methyl-1-(3-(4-(methylsulfonyl)piperidin-1-yl)benzyl)-1H-1,2,4-triazol-3-yl)-3-(4-(trifluoromethoxy)phenyl)isoxazole]	< 100
Cc1nc(-c2cc(-c3ccc(OC(F)(F)F)cc3)no2)nn1Cc1ccnc(N2CCC(S(C)(=O)=O)CC2)c1 [Example 95, 5-(5-Methyl-1-((2-(4-(methylsulfonyl)piperidin-1-yl)pyridin-4-yl)methyl)-1H-1,2,4-triazol-3-yl)-3-(4-(trifluoromethoxy)phenyl)isoxazole]	< 100
Cc1nc(-c2cc(-c3ccc(OC(F)(F)F)cc3)on2)nn1Cc1cccc(N2CCC(S(C)(=O)=O)CC2)c1 [Example 96, 3-(5-Methyl-1-(3-(4-(methylsulfonyl)piperidin-1-yl)benzyl)-1H-1,2,4-triazol-3-yl)-5-(4-(trifluoromethoxy)phenyl)isoxazole]	< 100
Cc1nc(-c2cc(-c3ccc(OC(F)(F)F)cc3)on2)nn1Cc1ccnc(N2CCC(S(C)(=O)=O)CC2)c1 [Example 97, 3-(5-Methyl-1-((2-(4-(methylsulfonyl)piperidin-1-yl)pyridin-4-yl)methyl)-1H-1,2,4-triazol-3-yl)-5-(4-(trifluoromethoxy)phenyl)isoxazole]	100 to 1000
Cc1nc(-c2nnc(-c3ccc(C(C)(C)C)cc3)o2)nn1Cc1cccc(N2CCOCC2)c1 [Example 98, 4-(3-((3-(5-(4-(tert-butyl)phenyl)-1,3,4-oxadiazol-2-yl)-5-methyl-1H-1,2,4-triazol-1-yl)methyl)phenyl)morpholine]	< 100
Cc1nc(-c2nc(-c3ccc(OC(F)(F)F)cc3)no2)nn1Cc1cncnc1 [Example 99, 5-(5-methyl-1-(pyrimidin-5-ylmethyl)-1H-1,2,4-triazol-3-yl)-3-(4-(trifluoromethoxy)phenyl)-1,2,4-oxadiazole]	1000 to 10000
Cc1cccc(Cn2nc(-c3nc(-c4ccc(OC(F)(F)F)cc4)no3)nc2C)c1 [Example 100, 5-(5-methyl-1-(3-methylbenzyl)-1H-1,2,4-triazol-3-yl)-3-(4-(trifluoromethoxy)phenyl)-1,2,4-oxadiazole]	1000 to 10000

Structure (SMILES)	IC50 [nM]
COc1cccc(Cn2nc(-c3nc(-c4ccc(OC(F)(F)F)cc4)no3)nc2C)c1 [Example 101, 5-(1-(3-methoxybenzyl)-5-methyl-1H-1,2,4-triazol-3-yl)-3-(4-(trifluoromethoxy)phenyl)-1,2,4-oxadiazole]	100 to 1000
Cc1nc(-c2nc(-c3ccc(OC(F)(F)F)cc3)no2)nn1Cc1cccc(C(F)(F)F)c1 [Example 102, 5-(5-methyl-1-(3-(trifluoromethyl)benzyl)-1H-1,2,4-triazol-3-yl)-3-(4-(trifluoromethoxy)phenyl)-1,2,4-oxadiazole]	1000 to 10000
Cc1nc(-c2nc(-c3ccc(OC(F)(F)F)cc3)no2)nn1Cc1cccc(OC(F)F)c1 [Example 103, 5-(1-(3-(difluoromethoxy)benzyl)-5-methyl-1H-1,2,4-triazol-3-yl)-3-(4-(trifluoromethoxy)phenyl)-1,2,4-oxadiazole]	100 to 1000
Cc1nc(-c2nc(-c3ccc(OC(F)(F)F)cc3)no2)nn1Cc1cccc(S(N)(=O)=O)c1 [Example 104, 3-((5-methyl-3-(3-(4-(trifluoromethoxy)phenyl)-1,2,4-oxadiazol-5-yl)-1H-1,2,4-triazol-1-yl)methyl)benzenesulfonamide]	100 to 1000
Cc1nc(-c2nc(-c3ccc(OC(F)(F)F)cc3)no2)nn1Cc1ccc(S(N)(=O)=O)cc1 [Example 105, 4-((5-methyl-3-(3-(4-(trifluoromethoxy)phenyl)-1,2,4-oxadiazol-5-yl)-1H-1,2,4-triazol-1-yl)methyl)benzenesulfonamide]	100 to 1000
Cc1nc(-c2nc(-c3ccc(OC(F)(F)F)cc3)no2)nn1Cc1cccc(S(C)(=O)=O)c1 [Example 106, 5-(5-methyl-1-(3-(methylsulfonyl)benzyl)-1H-1,2,4-triazol-3-yl)-3-(4-(trifluoromethoxy)phenyl)-1,2,4-oxadiazole]	< 100
Cc1nc(-c2nc(-c3ccc(OC(F)(F)F)cc3)no2)nn1Cc1cccc(C#N)c1 [Example 107, 3-((5-methyl-3-(3-(4-(trifluoromethoxy)phenyl)-1,2,4-oxadiazol-5-yl)-1H-1,2,4-triazol-1-yl)methyl)benzonitrile]	100 to 1000
Cc1cccc(Cn2nc(-c3nc(-c4ccc(OC(F)(F)F)cc4)no3)nc2C)n1 [Example 108, 5-(5-methyl-1-((6-methylpyridin-2-yl)methyl)-1H-1,2,4-triazol-3-yl)-3-(4-(trifluoromethoxy)phenyl)-1,2,4-oxadiazole]	1000 to 10000
Cc1nc(-c2nc(-c3ccc(OC(F)(F)F)cc3)no2)nn1Cc1ccc(C(C)C)cc1 [Example 109, 5-(1-(4-isopropylbenzyl)-5-methyl-1H-1,2,4-triazol-3-yl)-3-(4-(trifluoromethoxy)phenyl)-1,2,4-oxadiazole]	100 to 1000
Cc1nc(-c2nc(-c3ccc(OC(F)(F)F)cc3)no2)nn1Cc1cccc2c1cnn2C [Example 110, 5-(5-methyl-1-((1-methyl-1H-indazol-4-yl)methyl)-1H-1,2,4-triazol-3-yl)-3-(4-(trifluoromethoxy)phenyl)-1,2,4-oxadiazole]	100 to 1000
Cc1nc(-c2nc(-c3ccc(OC(F)(F)F)cc3)no2)nn1Cc1ccc2c(c1)OCO2 [Example 111, 5-(1-(benzo[d][1,3]dioxol-5-ylmethyl)-5-methyl-1H-1,2,4-triazol-3-yl)-3-(4-(trifluoromethoxy)phenyl)-1,2,4-oxadiazole]	100 to 1000
COc1ccc(Cn2nc(-c3nc(-c4ccc(OC(F)(F)F)cc4)no3)nc2C)cc1C(F)(F)F [Example 112, 5-(1-(4-methoxy-3-(trifluoromethyl)benzyl)-5-methyl-1H-1,2,4-triazol-3-yl)-3-(4-(trifluoromethoxy)phenyl)-1,2,4-oxadiazole]	1000 to 10000
Cc1nc(-c2nc(-c3ccc(OC(F)(F)F)cc3)no2)nn1Cc1ccc2ccccc2n1 [Example 113, 5-(5-methyl-1-(quinolin-2-ylmethyl)-1H-1,2,4-triazol-3-yl)-3-(4-(trifluoromethoxy)phenyl)-1,2,4-oxadiazole]	< 100
Cc1nc(-c2nc(-c3ccc(OC(F)(F)F)cc3)no2)nn1Cc1ccc2c(c1)nnn2C [Example 114, 5-(5-methyl-1-((1-methyl-1H-benzo[d][1,2,3]triazol-5-yl)methyl)-1H-1,2,4-triazol-3-yl)-3-(4-(trifluoromethoxy)phenyl)-1,2,4-oxadiazole]	100 to 1000
COc1nccc(Cn2nc(-c3nc(-c4ccc(OC(F)(F)F)cc4)no3)nc2C)n1 [Example 115, 5-(1-((2-methoxypyrimidin-4-yl)methyl)-5-methyl-1H-1,2,4-triazol-3-yl)-3-(4-(trifluoromethoxy)phenyl)-1,2,4-oxadizole]	1000 to 10000
Cc1nc(-c2noc(-c3ccc(C(C)(C)C)cc3)n2)nn1Cc1cccc(N2CCN(C)CC2)c1 [Example 116, 5-(4-(tert-butyl)phenyl)-3-(5-methyl-1-(3-(4-methylpiperazin-1-yl)benzyl)-1H-1,2,4-triazol-3-yl)-1,2,4-oxadiazole]	< 100
